Source: patent US8765730B2 (Hoffmann-La Roche Inc, priority 2010, dated 2014)
Where two headings read alike, the source gives them in different places.

Target: T1, human GPBAR1 receptor (Homo sapiens, UniProt Q8TDU6)
T1 construct: expressed in transfected cells
T1 sequence (Q8TDU6 1-330): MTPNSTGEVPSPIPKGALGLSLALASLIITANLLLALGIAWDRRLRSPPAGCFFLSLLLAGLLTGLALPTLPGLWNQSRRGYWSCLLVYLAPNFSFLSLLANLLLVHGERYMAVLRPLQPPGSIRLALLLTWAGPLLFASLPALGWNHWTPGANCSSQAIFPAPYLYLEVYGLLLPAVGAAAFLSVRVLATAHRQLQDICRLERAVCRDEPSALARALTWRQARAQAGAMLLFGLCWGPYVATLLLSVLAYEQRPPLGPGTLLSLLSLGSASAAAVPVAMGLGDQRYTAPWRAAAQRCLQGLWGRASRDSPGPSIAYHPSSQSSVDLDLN
Test: functional cAMP assay in CHO-dhfr(minus) cells expressing human GPBAR1 receptors
Type: cell-based
Details: 30 min at 30° C.
Method in brief: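 Agonist cAMP read-out: stable GPBAR1 CHO-dhfr− clone, 30 min compound exposure at 30° C following 30 min IBMX (1 mM) preincubation in Krebs Ringer bicarbonate. Time-resolved energy-transfer detection gives EC50; parental CHO cells serve as counter-screen.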

[1] = human EC50, functional cAMP assay
[2] = functional cAMP assay, read-out: human EC50

Row | Structure (SMILES) | EC50 [1] [nM] | EC50 [2] [nM]
1 | COC(=O)CNC(=O)c1ccc(-c2ccc(C(C/C(=N\O)c3ccc(=O)n(C)c3)c3ccc(Cl)cc3C)cc2)cc1 (single isomer, unassigned; (+)) [Example 254, (+)-({4′-[1-(4-chloro-2-methyl-phenyl)-3-[(E)-hydroxyimino]-3-(1-methyl-6-oxo-1,6-dihydro-pyridin-3-yl)-propyl]-biphenyl-4-carbonyl}-amino)-acetic acid methyl ester] | 60 | –
2 | Cc1cc(Cl)ccc1C(C/C(=N\O)c1ccc(=O)n(C)c1)c1ccc(-c2ccc(C(=O)NCC(=O)O)cc2)cc1 (single isomer, unassigned; (+)) [Example 256, (+)-({4′-[1-(4-Chloro-2-methyl-phenyl)-3-[(E)-hydroxyimino]-3-(1-methyl-6-oxo-1,6-dihydro-pyridin-3-yl)-propyl]-biphenyl-4-carbonyl}-amino)-acetic acid] | 10 | –
3 | Cc1cc(Cl)ccc1C(C/C(=N\O)c1ccc(=O)n(C)c1)c1ccc(S(C)(=O)=O)cc1 (single isomer, unassigned; (+)) [Example 334, (+)-(E)-5-(3-(4-chloro-2-methylphenyl)-1-(hydroxyimino)-3-(4-(methylsulfonyl)phenyl)-propyl)-1-methylpyridin-2(1H)-one] | 68 | –
4 | Cc1ccccc1C(C/C(=N\O)c1ccncc1)c1ccc(-c2cncnc2)cc1 (single isomer, unassigned; (-)) [Example 36, (−)-(E)-1-pyridin-4-yl-3-(4-pyrimidin-5-yl-phenyl)-3-o-tolyl-propan-1-one oxime] | 11 | –
5 | Cc1ccccc1C(C/C(=N/O)c1ccncc1)c1ccc(-c2cncnc2)cc1 (single isomer, unassigned; (-)) [Example 37, (−)-(Z)-1-pyridin-4-yl-3-(4-pyrimidin-5-yl-phenyl)-3-o-tolyl-propan-1-one oxime] | 2200 | –
6 | Cc1ccccc1C(C/C(=N\O)c1cc(Cl)ccc1Cl)c1ccc(Br)cc1 (single isomer, unassigned; (-)) [Example 51, (−)-(E)-3-(4-bromo-phenyl)-1-(2,5-dichloro-phenyl)-3-o-tolyl-propan-1-one oxime] | 933 | –
7 | Cn1cc(/C(CC(c2ccc(Br)cc2)c2ccc(Cl)cc2F)=N/O)ccc1=O (single isomer, unassigned; (-)) [Example 240, (−)-5-{3-(4-Bromo-phenyl)-3-(4-chloro-2-fluoro-phenyl)-1-[(E)-hydroxyimino]-propyl}-1-methyl-1H-pyridin-2-one] | 31 | –
8 | Cn1cc(/C(CC(c2ccc(-c3ccc(C(=O)O)cc3)cc2)c2ccc(Cl)cc2F)=N/O)ccc1=O (single isomer, unassigned; (-)) [Example 242, (−)-4′-[1-(4-Chloro-2-fluoro-phenyl)-3-[(E)-hydroxyimino]-3-(1-methyl-6-oxo-1,6-dihydro-pyridin-3-yl)-propyl]-biphenyl-4-carboxylic acid] | 370 | –
9 | COC(=O)CNC(=O)c1ccc(-c2ccc(C(C/C(=N\O)c3ccc(=O)n(C)c3)c3ccc(Cl)cc3C)cc2)cc1 (single isomer, unassigned; (-)) [Example 253, (−)-({4′-[1-(4-Chloro-2-methyl-phenyl)-3-[(E)-hydroxyimino]-3-(1-methyl-6-oxo-1,6-dihydro-pyridin-3-yl)-propyl]-biphenyl-4-carbonyl}-amino)-acetic acid methyl ester] | 140 | –
10 | Cc1cc(Cl)ccc1C(C/C(=N\O)c1ccc(=O)n(C)c1)c1ccc(-c2ccc(C(=O)NCC(=O)O)cc2)cc1 (single isomer, unassigned; (-)) [Example 255, (−)-({4′-[1-(4-Chloro-2-methyl-phenyl)-3-[(E)-hydroxyimino]-3-(1-methyl-6-oxo-1,6-dihydro-pyridin-3-yl)-propyl]-biphenyl-4-carbonyl}-amino)-acetic acid] | 30 | –
11 | Cc1cc(Cl)ccc1C(C/C(=N\O)c1ccc(=O)n(C)c1)c1ccc(S(C)(=O)=O)cc1 (single isomer, unassigned; (-)) [Example 333, (−)-(E)-5-(3-(4-Chloro-2-methylphenyl)-1-(hydroxyimino)-3-(4-(methylsulfonyl)phenyl)-propyl)-1-methylpyridin-2(1H)-one] | 73 | –
12 | O/N=C(\CC(c1ccccc1)c1ccc(Br)cc1)c1ccncc1 (stereo not drawn) [Example 5, (E)-3-(4-Bromo-phenyl)-3-phenyl-1-pyridin-4-yl-propan-1-one oxime] | – | 19
13 | O/N=C(\CC(c1ccccc1)c1cccc(Br)c1)c1ccncc1 (stereo not drawn) [Example 12, (E)-3-(3-Bromo-phenyl)-3-phenyl-1-pyridin-4-yl-propan-1-one oxime] | 92 | –
14 | O/N=C(\CC(c1ccccc1)c1ccccc1)c1ccncc1 [Example 14, (E)-3,3-Diphenyl-1-pyridin-4-yl-propan-1-one oxime] | 52 | –
15 | [O-][n+]1ccc(/C(CC(c2ccccc2)c2ccc(Br)cc2)=N/O)cc1 (stereo not drawn) [Example 15, (E)-3-(4-Bromo-phenyl)-1-(1-oxy-pyridin-4-yl)-3-phenyl-propan-1-one oxime] | 206 | –
16 | O/N=C(\CC(c1ccccc1)c1ccc(C2CC2)cc1)c1ccncc1 (stereo not drawn) [Example 16, (E)-3-(4-Cyclopropyl-phenyl)-3-phenyl-1-pyridin-4-yl-propan-1-one oxime] | 178 | –
17 | CS(=O)(=O)c1cccc(-c2ccc(C(C/C(=N\O)c3ccncc3)c3ccccc3)cc2)c1 (stereo not drawn) [Example 19, (E)-3-(3′-Methanesulfonyl-biphenyl-4-yl)-3-phenyl-1-pyridin-4-yl-propan-1-one oxime] | – | 355

Row | Structure (SMILES) | EC50 [1] [nM] | EC50 [2] [nM]
18 | CS(=O)(=O)c1ccc(-c2ccc(C(C/C(=N\O)c3ccncc3)c3ccccc3)cc2)cc1 (stereo not drawn) [Example 20, (E)-3-(4′-Methanesulfonyl-biphenyl-4-yl)-3-phenyl-1-pyridin-4-yl-propan-1-one oxime] | 66 | –
19 | CNS(=O)(=O)c1ccc(-c2ccc(C(C/C(=N\O)c3ccncc3)c3ccccc3)cc2)cc1 (stereo not drawn) [Example 21, 4′-{3-[(E)-Hydroxyimino]-1-phenyl-3-pyridin-4-yl-propyl}-biphenyl-4-sulfonic acid methylamide] | 303 | –
20 | O/N=C(\CC(c1ccccc1)c1ccc(-c2cncnc2)cc1)c1ccncc1 (stereo not drawn) [Example 22, (E)-3-Phenyl-1-pyridin-4-yl-3-(4-pyrimidin-5-yl-phenyl)-propan-1-one oxime] | 33 | –
21 | CS(=O)(=O)c1cccc(-c2cccc(C(C/C(=N\O)c3ccncc3)c3ccccc3)c2)c1 (stereo not drawn) [Example 23, (E)-3-(3′-Methanesulfonyl-biphenyl-3-yl)-3-phenyl-1-pyridin-4-yl-propan-1-one oxime] | 492 | –
22 | CS(=O)(=O)c1ccc(-c2cccc(C(C/C(=N\O)c3ccncc3)c3ccccc3)c2)cc1 (stereo not drawn) [Example 24, (E)-3-(4′-Methanesulfonyl-biphenyl-3-yl)-3-phenyl-1-pyridin-4-yl-propan-1-one oxime] | 2190 | –
23 | Cc1ccc(-c2ccc(C(C/C(=N\O)c3ccncc3)c3ccccc3)cc2)cn1 (stereo not drawn) [Example 25, (E)-3-[4-(6-Methyl-pyridin-3-yl)-phenyl]-3-phenyl-1-pyridin-4-yl-propan-1-one oxime] | 356 | –
24 | CCS(=O)(=O)c1ccc(-c2ccc(C(C/C(=N\O)c3ccncc3)c3ccccc3)cc2)cc1 (stereo not drawn) [Example 26, (E)-3-(4′-Ethanesulfonyl-biphenyl-4-yl)-3-phenyl-1-pyridin-4-yl-propan-1-one oxime] | 108 | –
25 | OCc1ccc(-c2ccc(C(C/C(=N\O)c3ccncc3)c3ccccc3)cc2)cc1 (stereo not drawn) [Example 27, (E)-3-(4′-Hydroxymethyl-biphenyl-4-yl)-3-phenyl-1-pyridin-4-yl-propan-1-one oxime] | 92 | –
26 | CCOC(=O)COc1cccc(-c2ccc(C(C/C(=N\O)c3ccncc3)c3ccccc3)cc2)c1 (stereo not drawn) [Example 28, (4′-{3-[(E)-Hydroxyimino]-1-phenyl-3-pyridin-4-yl-propyl}-biphenyl-3-yloxy)-acetic acid ethyl ester] | 163 | –
27 | COCCN(C)c1ccc(C(C/C(=N\O)c2ccncc2)c2ccccc2C)cc1 (stereo not drawn) [Example 39, (E)-3-{4-[(2-Methoxy-ethyl)-methyl-amino]-phenyl}-1-pyridin-4-yl-3-o-tolyl-propan-1-one oxime] | 75 | –
28 | Cc1ccccc1C(Cc1ccc(Br)cc1)/C(=N/O)c1ccncc1 (stereo not drawn) [Example 43, (Z)-3-(4-Bromo-phenyl)-1-pyridin-4-yl-2-o-tolyl-propan-1-one oxime] | 847 | –
29 | Cc1ccccc1C(Cc1ccc(Br)cc1)/C(=N\O)c1ccncc1 (stereo not drawn) [Example 44, (E)-3-(4-bromo-phenyl)-1-pyridin-4-yl-2-o-tolyl-propan-1-one oxime] | 421 | –
30 | O/N=C(\CC(c1ccccc1)c1ccc(Br)cc1)c1cc(Cl)nc(Cl)c1 (stereo not drawn) [Example 47, (E)-3-(4-Bromo-phenyl)-1-(2,6-dichloro-pyridin-4-yl)-3-phenyl-propan-1-one oxime] | 548 | –
31 | Cc1ccccc1C(C/C(=N\O)c1cc(F)cc(F)c1F)c1ccc(Br)cc1 (stereo not drawn) [Example 48, (E)-3-(4-Bromo-phenyl)-3-o-tolyl-1-(2,3,5-trifluoro-phenyl)-propan-1-one oxime] | 4360 | –
32 | Cc1ccccc1C(C/C(=N\O)c1cc(F)ccc1F)c1ccc(Br)cc1 (stereo not drawn) [Example 52, (E)-3-(4-Bromo-phenyl)-1-(2,5-difluoro-phenyl)-3-o-tolyl-propan-1-one oxime] | 763 | –
33 | Cc1ccccc1C(C/C(=N\O)c1cc(F)cc(F)c1)c1ccc(Br)cc1 (stereo not drawn) [Example 53, (E)-3-(4-bromo-phenyl)-1-(3,5-difluoro-phenyl)-3-o-tolyl-propan-1-one oxime] | 6760 | –
